{"source": "patent US20070254882A1", "about": "“Sulfamide Derivatives and Pharmaceutical Composition for Upregulation of Lipid Metabolism Comprising Same” (CRYSTAL GENOMICS, INC., priority 2004, published 2007)", "key": {"ob/ob mice [1]": {"tested_on": "ob/ob mice", "test": "Anti-obesity test: feed intake in ob/ob mice", "type": "in vivo", "details": "100 mg/kg oral twice a day, first week of the test, P<0.005, FIG. 1a", "protocol": "(§1) In order to evaluate the anti-obesity activity of the inventive compound, B6.V-Lepob/J mice (laboratory animal team of Korea Research Institute of Chemical Technology) were used for tests and lean mice as a control. Ob/ob mice are model animals for insulin-independent diabetes, suitable for studying the effect of an anti-obesity drug.\n(§2) 42 mice weighing 38.6±1.4 g were selected randomly from a pool of ob/ob mice (7-9 weeks old), and divided into groups of 7 mice each. The test was carried out at a constant temperature (24±0.5° C.) and humidity (55±5%) using ventilation system (10-12 times/hour), under a specific pathogen free (SPF) condition created in an automatic on-off cycle of 12 hours.\n(§3) The groups were divided to a control group treated only with an excipient, a positive control group treated with fenofibrate, and test groups treated with each of the compounds of Examples 5, 62 and 65, at dosage 100 mg/10 ml/kg body weight. Each of the test and control compounds was diluted with 0.5% CMC to a concentration to match the above dosage, and administered orally using a syringe into the stomach twice a day (9:00 and 18:00) for a period of 4 weeks, and the following characteristics were measured.\n1) General Symptoms and Observation of Dead Animal\nThe conditions, behavioral changes, addictive symptoms and the death rate were observed constantly during the test period."}, "ob/ob mice [2]": {"tested_on": "ob/ob mice", "test": "Anti-obesity test: lipid metabolism-related materials and glucose in blood of ob/ob mice", "type": "in vivo", "details": "28 days; for GLU (glucose) / HDL (HDL-cholesterol) / LDL (LDL-cholesterol) / NEFA (free fatty acid) / TG (triglyceride): 100 mg/kg oral twice a day, fasted 16 hours, plasma", "protocol": "as §1, §2, §3\n3) Measurement of Lipid Metabolism-Related Materials and Insulin Concentration in Blood\n28 days after the administration, experimental mice were fasted for 16 hours, and the concentrations of lipid metabolism-related materials such as triglyceride, free fatty acid and cholesterol, and insulin in blood were measured. Specifically, a blood sample was collected from the ocular venous plexus of each mouse and centrifuged to separate plasma. The glucose (GLU), HDL-cholesterol (HDL), LDL-cholesterol (LDL), triglyceride (TG) and free fatty acid (NEFA) levels were measured by enzymatic assay using 2 kinds of Selectra (Vital Lab), an automatic biochemical analyzer, and the insulin concentration was measured by ELISA using an insulin detection kit (Shibayagi)."}, "ob/ob mice [3]": {"tested_on": "ob/ob mice", "test": "Anti-obesity test: dissection, fat weights in ob/ob mice", "type": "in vivo", "details": "ob/ob mice after completing all tests; for adiposity index (fat weight/(body weight—fat weight)): FIG. 4b; for total fat weight: P<0.01, P<0.005, FIG. 4a", "protocol": "as §1, §2, §3\nAfter completing all tests, each of the mice in test treated with the compounds of Examples 5 and 62 and the positive control group treated with fenofibrate was sacrificed, the whole blood, liver, muscle and white adipose tissue thereof were extracted. White adipose tissued was divided into visceral fat and subcutaneous fat, and the amounts of the total fats and liver tissue were weighed separately."}, "human PPAR α": {"molecular_target": "T1, human PPAR α (Homo sapiens, UniProt Q07869)", "T1 construct": "expressed in transfected cells; host or cells: HepG2 (ATCC HB-8065) or 293T cells (ATCC CRL-1573)", "T1 sequence (Q07869 239-466 limits assumed)": "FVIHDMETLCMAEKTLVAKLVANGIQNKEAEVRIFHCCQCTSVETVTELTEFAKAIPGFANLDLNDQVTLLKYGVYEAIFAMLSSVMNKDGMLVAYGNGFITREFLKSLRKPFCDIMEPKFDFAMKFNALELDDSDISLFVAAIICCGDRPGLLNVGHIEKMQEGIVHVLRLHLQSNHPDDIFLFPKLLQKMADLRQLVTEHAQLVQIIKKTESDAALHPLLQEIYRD", "test": "Exogeneous PPAR α agonist assay (GAL4 DNA binding domain/PPAR α ligand binding domain, luciferase) in 293T cells", "type": "cell-based", "design": "scale not given here", "details": "25 μM compound, 48 hours, luciferase activity increase relative to the control", "how_it_was_run": "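HepG2 or 293T cells (2×10^4/well) lipofectamine-transfected 3 hours with PPAR α, UAS firefly-luciferase and Renilla-luciferase constructs. Compounds then added at 25 μM final and incubated 48 hours at 37° C. PPAR α activation measured as dual firefly/Renilla luciferase luminescence.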"}, "ob/ob mice [4]": {"tested_on": "ob/ob mice", "test": "Anti-obesity test: body weight measurement in ob/ob mice", "type": "in vivo", "details": "100 mg/kg oral twice a day", "protocol": "as §1, §2, §3\n2) Body Weight Measurement\nThe average body weight of each group was measured every 3 days after the administration, and the changes in the average body weight and body weight gain (measured body weight—initial body weight) were analyzed."}, "ob/ob mice [5]": {"tested_on": "ob/ob mice", "test": "Oral glucose tolerance test (OGTT) in ob/ob mice", "type": "in vivo", "details": "for total changes in the glucose concentration represented by AUC compared to the control group / glucose concentration at 30 and 60 min after the glucose administration compared to the control group: 2 g/kg glucose; for total changes in the glucose concentration represented by AUC compared to the control group: 0-120 min, P<0.05, P<0.005 and P<0.01, FIG. 3b; for glucose concentration at 30 and 60 min after the glucose administration compared to the control group: P<0.01, P<0.05, FIG. 3a; for glucose concentration during the fast compared to the control group: ob/ob mice, 28 days, fasted 16 hours, P<0.05, FIG. 3c", "protocol": "as §1, §2, §3\n4) Oral Glucose Tolerance Test (OGTT)\n28 days after the administration, each of the experimental mice was fasted for 16 hours, 2 g/kg of glucose was administered thereto, a blood sample was collected from the ocular venous plexus thereof at 0, 15, 30, 60 and 120 min from the administration, and the glucose concentration and AUC (area under the curve, Skrumsager et al., J Clin Pharmacol. 43, 1244-1256, 2003) were determined."}}}
{"molecule": "Cc1ccc(-c2nc(CCOc3cccc(CN(CC(=O)O)S(=O)(=O)N(C)C)c3)c(C)o2)cc1", "note": "[Example 62, [N—(N,N-dimethylamino)sulfonyl-N-[3-[2-[2-(4-methylphenyl)-5-methyloxazol-4-yl]ethoxy]benzyl]amino]acetic acid]", "values": [{"measurement": "daily feed intake compared to the control group", "setting": "ob/ob mice [1]", "result": "significantly reduced"}, {"measurement": "GLU (glucose)", "setting": "ob/ob mice [2]", "result": "190.4 ± 77.6", "unit": "mg/dL"}, {"measurement": "HDL (HDL-cholesterol)", "setting": "ob/ob mice [2]", "result": "381.8 ± 40.1", "unit": "mg/dL"}, {"measurement": "LDL (LDL-cholesterol)", "setting": "ob/ob mice [2]", "result": "37.8 ± 5.2", "unit": "mg/dL"}, {"measurement": "NEFA (free fatty acid)", "setting": "ob/ob mice [2]", "result": "976 ± 238", "unit": "UEq/l"}, {"measurement": "TG (triglyceride)", "setting": "ob/ob mice [2]", "result": "37.9 ± 6.6", "unit": "mg/dL"}, {"measurement": "GLU concentration compared to the control or positive control group", "setting": "ob/ob mice [2]", "result": "much lower"}, {"measurement": "HDL concentration", "setting": "ob/ob mice [2]", "result": "high"}, {"measurement": "triglyceride concentration compared to a control", "setting": "ob/ob mice [2]; P<0.05", "result": "significantly lower"}, {"measurement": "weight of subcutaneous fat", "setting": "ob/ob mice [3]", "result": "reduced"}, {"measurement": "weight of visceral fat", "setting": "ob/ob mice [3]", "result": "reduced"}, {"measurement": "adiposity index (fat weight/(body weight—fat weight))", "setting": "ob/ob mice [3]", "result": "reduced"}, {"measurement": "total fat weight", "setting": "ob/ob mice [3]", "result": "low"}, {"measurement": "Activity at 25 μM Step 1 293T cell", "setting": "human PPAR α", "result": 2}, {"measurement": "body weight effect compared to the positive control group treated with fenofibrate", "setting": "ob/ob mice [4]", "result": "improved effect"}, {"measurement": "change in the body weight gain compared to the control group", "setting": "ob/ob mice [4]; at day 7 from the administration, P<0.01", "result": "evidently lower"}, {"measurement": "change in the average body weight compared to the control group", "setting": "ob/ob mice [4]; at day 10 from the administration, P<0.01, P<0.005", "result": "markedly reduced"}, {"measurement": "total changes in the glucose concentration represented by AUC compared to the control group", "setting": "ob/ob mice [5]", "result": "much lower"}, {"measurement": "glucose concentration at 30 and 60 min after the glucose administration compared to the control group", "setting": "ob/ob mice [5]", "result": "significantly low"}, {"measurement": "glucose concentration during the fast compared to the control group", "setting": "ob/ob mice [5]", "result": "significantly low"}]}
{"molecule": "Cc1oc(-c2ccc(C(F)(F)F)cc2)nc1CCOc1cccc(CN(CC(=O)O)S(=O)(=O)N(C)C)c1", "note": "[Example 65, [N—(N,N-dimethylamino)sulfonyl-N-[3-[2-[2-(4-trifluoromethylphenyl)-5-methyloxazol-4-yl]ethoxy]benzyl]amino]acetic acid]", "values": [{"measurement": "daily feed intake compared to the control group", "setting": "ob/ob mice [1]", "result": "significantly reduced"}, {"measurement": "GLU (glucose)", "setting": "ob/ob mice [2]", "result": "158.8 ± 44.0", "unit": "mg/dL"}, {"measurement": "HDL (HDL-cholesterol)", "setting": "ob/ob mice [2]", "result": "321.4 ± 31.8", "unit": "mg/dL"}, {"measurement": "LDL (LDL-cholesterol)", "setting": "ob/ob mice [2]", "result": "33.0 ± 9.3", "unit": "mg/dL"}, {"measurement": "NEFA (free fatty acid)", "setting": "ob/ob mice [2]", "result": "1,006 ± 203 UEq/l"}, {"measurement": "TG (triglyceride)", "setting": "ob/ob mice [2]", "result": "45.9 ± 4.7", "unit": "mg/dL"}, {"measurement": "GLU concentration compared to the control or positive control group", "setting": "ob/ob mice [2]", "result": "much lower"}, {"measurement": "HDL concentration", "setting": "ob/ob mice [2]", "result": "high"}, {"measurement": "Activity at 25 μM Step 1 293T cell", "setting": "human PPAR α", "result": 1}, {"measurement": "total changes in the glucose concentration represented by AUC compared to the control group", "setting": "ob/ob mice [5]", "result": "much lower"}, {"measurement": "glucose concentration at 30 and 60 min after the glucose administration compared to the control group", "setting": "ob/ob mice [5]", "result": "significantly low"}, {"measurement": "glucose concentration during the fast compared to the control group", "setting": "ob/ob mice [5]", "result": "significantly low"}]}
{"molecule": "Cc1oc(-c2ccc(C(F)(F)F)cc2)nc1COc1cccc(CN(CC(=O)O)S(=O)(=O)N(C)C)c1", "note": "[Example 5, [N—(N,N-dimethylamino)sulfonyl-N-[3-[[2-(4-trifluoromethylphenyl)-5-methyloxazol-4-yl]methoxy]benzyl]amino]acetic acid]", "values": [{"measurement": "daily feed intake compared to the control group", "setting": "ob/ob mice [1]", "result": "significantly reduced"}, {"measurement": "GLU (glucose)", "setting": "ob/ob mice [2]", "result": "218.1 ± 125.5", "unit": "mg/dL"}, {"measurement": "HDL (HDL-cholesterol)", "setting": "ob/ob mice [2]", "result": "292.1 ± 24.7", "unit": "mg/dL"}, {"measurement": "LDL (LDL-cholesterol)", "setting": "ob/ob mice [2]", "result": "24.3 ± 4.3", "unit": "mg/dL"}, {"measurement": "NEFA (free fatty acid)", "setting": "ob/ob mice [2]", "result": "880 ± 273", "unit": "UEq/l"}, {"measurement": "TG (triglyceride)", "setting": "ob/ob mice [2]", "result": "47.3 ± 12.4", "unit": "mg/dL"}, {"measurement": "GLU concentration compared to the control or positive control group", "setting": "ob/ob mice [2]", "result": "much lower"}, {"measurement": "LDL concentration", "setting": "ob/ob mice [2]; P<0.05", "result": "low"}, {"measurement": "weight of subcutaneous fat", "setting": "ob/ob mice [3]", "result": "reduced"}, {"measurement": "weight of visceral fat", "setting": "ob/ob mice [3]", "result": "reduced"}, {"measurement": "adiposity index (fat weight/(body weight—fat weight))", "setting": "ob/ob mice [3]", "result": "reduced"}, {"measurement": "total fat weight", "setting": "ob/ob mice [3]", "result": "low"}, {"measurement": "Activity at 25 μM Step 1 293T cell", "setting": "human PPAR α", "result": 2}, {"measurement": "total changes in the glucose concentration represented by AUC compared to the control group", "setting": "ob/ob mice [5]", "result": "much lower"}, {"measurement": "glucose concentration during the fast compared to the control group", "setting": "ob/ob mice [5]", "result": "significantly low"}]}
